From US6069143A, “Fibrinogen receptor antagonists” (SmithKline Beecham Corporation, priority 1996, dated 2000)

Target: T1, fibrinogen receptor (GPIIb-IIIa) (Homo sapiens, UniProt P05106+P08514)
T1 construct: Ten units of outdated, washed human platelets (obtained from Red Cross) were lyzed; from tissue; host or cells: outdated human platelets (Red Cross); GPIIb-IIIa purified on lentil lectin sepharose and incorporated in liposomes
Assay: Competitive binding to GPIIb-IIIa ([3H]-SK&F-107260 displacement, GPIIb-IIIa liposomes)
Conditions: purified human platelet GPIIb-IIIa in liposomes; 4.5 nM [3H]-SK&F-107260; Ki from IC50 by Cheng and Prusoff equation; read-out: Ki, inhibition of [3H]-SK&F 107260 binding
Protocol: Ten units of outdated, washed human platelets (obtained from Red Cross) were lyzed by gentle stirring in 3% octylglucoside, 20 mM Tris-HCl, pH 7.4, 140 mM NaCl, 2 mM CaCl2 at 4° C. for 2 h. The lysate was centrifuged at 100,000 g for 1 h. The supernatant obtained was applied to a 5 mL lentil lectin sepharose 4B column (E.Y. Labs) preequilibrated with 20 mM Tris-HCl, pH 7.4, 100 mM NaCl, 2 mM CaCl2, 1% octylglucoside (buffer A). After 2 h incubation, the column was washed with 50 mL cold buffer A. The lectin-retained GPIIb-IIIa was eluted with buffer A containing 10% dextrose. All procedures were performed at 4° C. The GPIIb-IIIa obtained was >95% pure as shown by SDS polyacrylamide gel electrophoresis. […]
The binding to the fibrinogen receptor (GPIIb-IIIa) was assayed by an indirect competitive binding method using [^3 H]-SK&F-107260 as an RGD-type ligand. […] Bound radioactivity remaining on the filters was counted in 1.5 mL Ready Solve (Beckman Instruments, Fullerton, Calif.) in a Beckman Liquid Scintillation Counter (Model LS6800), with 40% efficiency. Nonspecific binding was determined in the presence of 2 μg unlabeled SK&F-107260 and was consistently less than 0.14% of the total radioactivity added to the samples. […]
Competition binding data were analyzed by a nonlinear least-squares curve fitting procedure. […]

T1 sequence (P08514 32-887 limits assumed): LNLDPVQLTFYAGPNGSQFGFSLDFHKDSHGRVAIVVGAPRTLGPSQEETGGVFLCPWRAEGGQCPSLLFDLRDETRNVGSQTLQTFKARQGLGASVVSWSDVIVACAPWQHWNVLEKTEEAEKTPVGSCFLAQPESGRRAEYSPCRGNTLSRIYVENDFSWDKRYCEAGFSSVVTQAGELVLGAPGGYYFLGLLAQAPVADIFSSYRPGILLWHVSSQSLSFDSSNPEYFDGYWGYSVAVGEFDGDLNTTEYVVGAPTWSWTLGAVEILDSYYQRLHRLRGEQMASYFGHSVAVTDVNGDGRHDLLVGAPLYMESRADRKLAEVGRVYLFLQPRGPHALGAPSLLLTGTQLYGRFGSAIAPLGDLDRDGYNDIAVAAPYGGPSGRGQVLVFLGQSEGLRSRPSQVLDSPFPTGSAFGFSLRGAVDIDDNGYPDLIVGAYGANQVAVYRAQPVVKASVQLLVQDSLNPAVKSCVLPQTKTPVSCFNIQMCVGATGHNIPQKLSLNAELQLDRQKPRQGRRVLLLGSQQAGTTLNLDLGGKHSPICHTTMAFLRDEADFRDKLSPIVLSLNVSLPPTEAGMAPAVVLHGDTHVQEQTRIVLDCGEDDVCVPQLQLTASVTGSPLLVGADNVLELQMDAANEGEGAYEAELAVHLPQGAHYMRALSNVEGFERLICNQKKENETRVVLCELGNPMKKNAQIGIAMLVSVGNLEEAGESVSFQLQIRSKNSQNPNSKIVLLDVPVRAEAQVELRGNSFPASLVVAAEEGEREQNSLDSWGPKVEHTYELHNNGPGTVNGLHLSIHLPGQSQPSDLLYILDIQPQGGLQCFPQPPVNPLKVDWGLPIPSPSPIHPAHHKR
T1 sequence (P08514 891-1039 limits assumed): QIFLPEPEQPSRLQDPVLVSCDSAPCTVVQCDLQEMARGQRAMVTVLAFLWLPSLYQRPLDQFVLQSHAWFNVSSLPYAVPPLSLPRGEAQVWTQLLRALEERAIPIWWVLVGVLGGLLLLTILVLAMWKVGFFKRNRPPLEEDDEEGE
T1 sequence (P05106 27-788): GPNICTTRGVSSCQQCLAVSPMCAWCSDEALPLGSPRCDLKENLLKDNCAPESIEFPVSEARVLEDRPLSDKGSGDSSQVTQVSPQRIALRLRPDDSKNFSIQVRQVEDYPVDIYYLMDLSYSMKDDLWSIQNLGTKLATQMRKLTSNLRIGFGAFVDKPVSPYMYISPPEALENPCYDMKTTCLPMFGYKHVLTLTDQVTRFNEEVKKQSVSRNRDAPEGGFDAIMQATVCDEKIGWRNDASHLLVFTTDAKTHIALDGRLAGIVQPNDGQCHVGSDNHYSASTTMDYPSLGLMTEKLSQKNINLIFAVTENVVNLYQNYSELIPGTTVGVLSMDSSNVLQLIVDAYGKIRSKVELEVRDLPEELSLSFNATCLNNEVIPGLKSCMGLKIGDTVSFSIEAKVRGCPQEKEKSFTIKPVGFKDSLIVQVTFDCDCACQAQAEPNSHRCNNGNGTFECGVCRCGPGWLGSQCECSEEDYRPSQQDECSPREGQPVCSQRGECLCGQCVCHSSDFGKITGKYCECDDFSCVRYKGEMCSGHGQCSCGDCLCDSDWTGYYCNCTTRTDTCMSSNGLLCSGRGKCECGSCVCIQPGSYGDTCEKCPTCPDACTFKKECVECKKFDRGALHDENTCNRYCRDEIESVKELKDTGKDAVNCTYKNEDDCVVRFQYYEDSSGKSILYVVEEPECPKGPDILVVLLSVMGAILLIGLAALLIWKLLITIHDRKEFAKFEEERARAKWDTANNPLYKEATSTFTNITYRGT

## O=C(O)CN1CCC(C(=O)Nc2ccc(N3CCNCC3)cc2)CC1 [Example 1, 4-[[[4-(1-piperazinyl)phenyl]amino]carbonyl]-1-piperidineacetic acid]
  Ki: ~5 nM
